According to patent US20210077382A1, “COMPOSITIONS, DEVICES, AND METHODS FOR THE TREATMENT OF OPIOID-RECEPTOR-MEDIATED CONDITIONS” (Opiant Phamaceuticals, Inc., priority 2016, published 2021):

Assay: Clinical pharmacokinetic crossover study of IN, IM and oral naltrexone; plasma naltrexone and 6β-naltrexol by LC-MS/MS
Source text: Study Goals. […] Secondary endpoints included adverse events (AEs), vital signs (heart rate, sitting blood pressure, and respiration rate), electrocardiogram (ECG), clinical laboratory changes and nasal irritation using the nasal irritation scale.
Study design. […] This was an in-patient open-label, crossover study involving approximately 14 healthy volunteers. […] Subjects stayed in the in-patient facility for 13 days to complete the entire study. Subjects were called 3 to 5 days after discharge to inquire concerning AEs and concomitant medications since discharge. Informed consent was obtained from all subjects, and all were screened for eligibility to participate in the study, including medical history, physical examination, clinical chemistry, coagulation markers, hematology, infectious disease serology, urinalysis, urine drug and alcohol toxicology screen, vital signs and ECG.
On days of study drug administration, a 12-lead ECG was performed approximately 1 hour prior to dosing and at approximately 1 and 4 hours post-dose. Vital signs were measured pre-dose and about 1 and 4 hours post-dose.
Study Drugs and Dosing. […] The IN (40 mg/mL) formulations were made by the staff pharmacist at Vince & Associates; the vehicle for the IN formulations was sterile water for injection. The IM formulation (2 mg/mL) was made by the staff pharmacist at Vince & Associates; the vehicle was sterile saline for injection.
Subjects stayed in the in-patient facility for 13 days to complete the entire study and were discharged 2 days after the fourth dose.
PK Assessments. […] Plasma was separated from whole blood and stored frozen at […] until assayed.
Analysis. […] Dose-adjusted values for AUCs and Cmax were calculated. The relative extent of IN and PO absorption (IN and PO versus IM) will be estimated from the dose-corrected AUCs.

Compound: Oc1ccc2c3c1O[C@H]1[C@H](O)CC[C@@]4(O)[C@@H](C2)N(CC2CC2)CC[C@]314 [6β-naltrexol]
- λz of 6β-naltrexol, mean (CV %) (naltrexone 4 mg IN plus […] Intravail, N = 12): 0.0553 (15.1) 1/h
- AUC0-inf of 6β-naltrexol, mean (CV %) (naltrexone 4 mg IN, N = 13): 44.0 ng·h/mL
- AUC0-inf/Dose of 6β-naltrexol, mean (CV %) (naltrexone 4 mg IN, N = 13): 12.2 (23.1) h · ng/mL/mg
- AUC0-t of 6β-naltrexol, mean (CV %) (naltrexone 4 mg IN, N = 13): 40.3 (23.3) h · ng/mL
- AUC0-t/Dose of 6β-naltrexol, mean (CV %) (naltrexone 4 mg IN, N = 13): 11.1 (23.3) h · ng/mL/mg
- AUCextrap of 6β-naltrexol, mean (CV %) (naltrexone 4 mg IN, N = 13): 8.57 (46.1) %
- Cmax of 6β-naltrexol, mean (CV %) (naltrexone 4 mg IN, N = 13): 3.01 (33.2) ng/mL
- Cmax/Dose of 6β-naltrexol, mean (CV %) (naltrexone 4 mg IN, N = 13): 0.833 ng/mL/mg
- Tmax of 6β-naltrexol, median (minimum, maximum) (naltrexone 4 mg IN, N = 13): 2.00 h
- t1/2 of 6β-naltrexol, mean (CV %) (naltrexone 4 mg IN, N = 13): 13.7 (22.7) h
- λz of 6β-naltrexol, mean (CV %) (naltrexone 4 mg IN, N = 13): 0.0530 h⁻¹
- Cmax/Dose of 6β-naltrexol, mean (CV %) (naltrexone 4 mg IN, N = 13, listed as 6β-Naltrexol): 0.833 (33.2) ng/mL/mg
- Mean concentration of 6β-naltrexol (naltrexone 4 mg IN, hour 0): 0 ng/mL
- Mean concentration of 6β-naltrexol (naltrexone 4 mg IN, hour 0.042): 0 ng/mL
- Mean concentration of 6β-naltrexol (naltrexone 4 mg IN, hour 0.083): 0.0321 ng/mL
- Mean concentration of 6β-naltrexol (naltrexone 4 mg IN, hour 0.17): 0.196 ng/mL
- Mean concentration of 6β-naltrexol (naltrexone 4 mg IN, hour 0.25): 0.45 ng/mL
- Mean concentration of 6β-naltrexol (naltrexone 4 mg IN, hour 0.33): 0.693 ng/mL
- Mean concentration of 6β-naltrexol (naltrexone 4 mg IN, hour 0.5): 1.11 ng/mL
- Mean concentration of 6β-naltrexol (naltrexone 4 mg IN, hour 0.75): 1.82 ng/mL
- Mean concentration of 6β-naltrexol (naltrexone 4 mg IN, hour 1): 1.83 ng/mL
- Mean concentration of 6β-naltrexol (naltrexone 4 mg IN, hour 2): 2.68 ng/mL
- Mean concentration of 6β-naltrexol (naltrexone 4 mg IN, hour 3): 2.61 ng/mL
- Mean concentration of 6β-naltrexol (naltrexone 4 mg IN, hour 4): 2.37 ng/mL
- Mean concentration of 6β-naltrexol (naltrexone 4 mg IN, hour 6): 1.97 ng/mL
- Mean concentration of 6β-naltrexol (naltrexone 4 mg IN, hour 8): 1.62 ng/mL
- Mean concentration of 6β-naltrexol (naltrexone 4 mg IN, hour 12): 1.26 ng/mL
- Mean concentration of 6β-naltrexol (naltrexone 4 mg IN, hour 16): 0.919 ng/mL
- Mean concentration of 6β-naltrexol (naltrexone 4 mg IN, hour 24): 0.602 ng/mL
- Mean concentration of 6β-naltrexol (naltrexone 4 mg IN, hour 30): 0.418 ng/mL
- Mean concentration of 6β-naltrexol (naltrexone 4 mg IN, hour 36): 0.292 ng/mL
- Mean concentration of 6β-naltrexol (naltrexone 4 mg IN, hour 48): 0.184 ng/mL
- AUC0-inf of 6β-naltrexol, mean (CV %) (naltrexone 50 mg Oral, N = 10): 675 ng·h/mL
- AUC0-inf/Dose of 6β-naltrexol, mean (CV %) (naltrexone 50 mg Oral, N = 10): 14.9 (19.9) h · ng/mL/mg
- AUC0-t of 6β-naltrexol, mean (CV %) (naltrexone 50 mg Oral, N = 10): 614 (19.5) h · ng/mL
- AUC0-t/Dose of 6β-naltrexol, mean (CV %) (naltrexone 50 mg Oral, N = 10): 13.6 (19.5) h · ng/mL/mg
- AUCextrap of 6β-naltrexol, mean (CV %) (naltrexone 50 mg Oral, N = 10): 8.79 (57.3) %
- Cmax of 6β-naltrexol, mean (CV %) (naltrexone 50 mg Oral, N = 10): 90.7 ng/mL
- Cmax/Dose of 6β-naltrexol, mean (CV %) (naltrexone 50 mg Oral, N = 10): 2.00 ng/mL/mg
- Tmax of 6β-naltrexol, median (minimum, maximum) (naltrexone 50 mg Oral, N = 10): 0.63 h
- t1/2 of 6β-naltrexol, mean (CV %) (naltrexone 50 mg Oral, N = 10): 13.9 (15.9) h
- λz of 6β-naltrexol, mean (CV %) (naltrexone 50 mg Oral, N = 10): 0.0510 (15.8) 1/h
- Cmax/Dose of 6β-naltrexol, mean (CV %) (naltrexone 50 mg Oral, N = 10, listed as 6β-Naltrexol): 2.00 (30.3) ng/mL/mg
- Mean concentration of 6β-naltrexol (naltrexone 50 mg Oral, hour 0): 0.0454 ng/mL
- Mean concentration of 6β-naltrexol (naltrexone 50 mg Oral, hour 0.042): 0.0448 ng/mL
- Mean concentration of 6β-naltrexol (naltrexone 50 mg Oral, hour 0.083): 1.4 ng/mL
- Mean concentration of 6β-naltrexol (naltrexone 50 mg Oral, hour 0.17): 14.2 ng/mL
- Mean concentration of 6β-naltrexol (naltrexone 50 mg Oral, hour 0.25): 31.6 ng/mL
- Mean concentration of 6β-naltrexol (naltrexone 50 mg Oral, hour 0.33): 45.5 ng/mL
- Mean concentration of 6β-naltrexol (naltrexone 50 mg Oral, hour 0.5): 68.7 ng/mL
- Mean concentration of 6β-naltrexol (naltrexone 50 mg Oral, hour 0.75): 60.8 ng/mL
- Mean concentration of 6β-naltrexol (naltrexone 50 mg Oral, hour 1): 58.6 ng/mL
- Mean concentration of 6β-naltrexol (naltrexone 50 mg Oral, hour 2): 54 ng/mL
- Mean concentration of 6β-naltrexol (naltrexone 50 mg Oral, hour 3): 45.8 ng/mL
- Mean concentration of 6β-naltrexol (naltrexone 50 mg Oral, hour 4): 38 ng/mL
- Mean concentration of 6β-naltrexol (naltrexone 50 mg Oral, hour 6): 28.5 ng/mL
- Mean concentration of 6β-naltrexol (naltrexone 50 mg Oral, hour 8): 22.2 ng/mL
- Mean concentration of 6β-naltrexol (naltrexone 50 mg Oral, hour 12): 15.4 ng/mL
- Mean concentration of 6β-naltrexol (naltrexone 50 mg Oral, hour 16): 11.4 ng/mL
- Mean concentration of 6β-naltrexol (naltrexone 50 mg Oral, hour 24): 8.14 ng/mL
- Mean concentration of 6β-naltrexol (naltrexone 50 mg Oral, hour 30): 5.93 ng/mL
- Mean concentration of 6β-naltrexol (naltrexone 50 mg Oral, hour 36): 4.35 ng/mL
- Mean concentration of 6β-naltrexol (naltrexone 50 mg Oral, hour 48): 2.43 ng/mL
- Dose-adjusted Cmax of 6β-naltrexol after oral administration, higher than after IN and IM doses (oral vs IN and IM): approximately 2 fold
